Test results reported in paper PMC7162861, “Synthesis, cytotoxicity, pharmacokinetic profile, binding with DNA and BSA of new imidazo[1,2-a]pyrazine-benzo[d]imidazol-5-yl hybrids” (Scientific Reports, 2020).

Experiments:
[1] = test system: CCRF-CEM; test: NCI cytotoxicity screen, Leukemia panel; type: cell-based
Procedure: (§1) Cytotoxicity was performed at National Cancer Institute (NCI), Bethesda, USA as per their protocols.

[2] = test system: HL-60(TB); test: NCI cytotoxicity screen, Leukemia panel; type: cell-based
Procedure: as §1

[3] = test system: K-562; test: NCI cytotoxicity screen, Leukemia panel; type: cell-based
Procedure: as §1

[4] = test system: MOLT-4; test: NCI cytotoxicity screen, Leukemia panel; type: cell-based; details: MOLT-4
Procedure: as §1

[5] = test system: RPMI-8226; test: NCI cytotoxicity screen, Leukemia panel; type: cell-based; details: for GI50: RPMI-8226, RPMI-8226
Procedure: as §1

[6] = test system: SR; test: NCI cytotoxicity screen, Leukemia panel; type: cell-based
Procedure: as §1

[7] = NCI cytotoxicity screen, Non-Small Cell Lung Cancer panel; type: cell-based; details: Homo sapiens; EXVX; five dose 0.01–100 µM; read-out: LC50 (the source's name)
Procedure: as §1

[8] = test system: SF-268; test: NCI cytotoxicity screen, CNS Cancer panel; type: cell-based
Procedure: as §1

[9] = test system: SF-295; test: NCI cytotoxicity screen, CNS Cancer panel; type: cell-based
Procedure: as §1

[10] = test system: SF-539; test: NCI cytotoxicity screen, CNS Cancer panel; type: cell-based
Procedure: as §1

[11] = test system: SNB-19; test: NCI cytotoxicity screen, CNS Cancer panel; type: cell-based
Procedure: as §1

[12] = test system: SNB-75; test: NCI cytotoxicity screen, CNS Cancer panel; type: cell-based
Procedure: as §1

[13] = test system: U251; test: NCI cytotoxicity screen, CNS Cancer panel; type: cell-based
Procedure: as §1

[14] = test system: OVCAR-4; test: NCI cytotoxicity screen, Ovarian Cancer panel; type: cell-based
Procedure: as §1

[15] = test system: OVCAR-5; test: NCI cytotoxicity screen, Ovarian Cancer panel; type: cell-based; details: Homo sapiens
Procedure: as §1

[16] = test system: OVCAR-3; test: NCI cytotoxicity screen, Ovarian Cancer panel; type: cell-based, human
Procedure: as §1

[17] = test system: DU-145; test: NCI cytotoxicity screen, Prostate Cancer panel; type: cell-based, human
Procedure: as §1

[18] = test system: PC-3; test: NCI cytotoxicity screen, Prostate Cancer panel; type: cell-based, human; details: five dose 0.01–100 µM
Procedure: as §1

[19] = test system: Human Embryonic Kidney cells (HEK293); test: MTT assay on normal cell line; type: cell-based; details: 48 h
Procedure: HEK-293 cells (human embryonic kidney cells) were grown in Dulbecco’s modified eagle’s medium (DMEM) supplemented with 100 U/ml penicillin, 10% FBS, […] streptomycin and 50 mM glutamine. Furthermore, cells were harvested using trypsin and seeded in a 96-well cell culture plate for the MTT (3-(4,5-Dimethylthiazol-2-yl)-2,5-diphenyltetrazolium bromide) assay. The test compound was solubilized in cell culture grade DMSO. Once the cells in 96-well plates were 70% confluent, the compound was injected to the cells at five concentrations (0.01, 0.1, 1, 10, 100 µM) at 37 °C for 48 h (made in DMEM supplemented with 1% antibiotic and 10% FBS). After 48 h, cells were washed with PBS and added with 100 μL of fresh media in each well along with 10 μL of MTT reagent (5 mg/mL) for another 4 h. After 4 h, the media was again removed and added 100 μL cell culture grade DMSO to dissolve the formazan crystals formed by the reduction of MTT by live cells. The quantity of formed formazan crystal was determined as alterations in absorbance at 570 nm wavelength using ELISA plate reader (Bio-Tek). All tests were accomplished three times. The cell toxicity (%) was calculated using the following formula: %CellToxicity=100−ODoftreatedwell/ODofuntreatedwell×100

[20] = test system: EtBr-CT-DNA complex; test: Competitive binding with ethidium bromide for CT-DNA; set-up: species or system calf
Procedure: Ethidium bromide (EtBr) displacement experiments were performed by incremental addition of compound 31 to complex of EtBr-DNA. The EtBr (3 µM) and CT-DNA (30 µM) were titrated with incremental addition of compound 31 (0–85 µM) in phosphate buffer (pH 7.4). […] The quenching constant (Kq) was calculated using the Stern-Volmer equation (Eq. 2). The apparent binding constant (Kapp) was obtained from known binding constant for ethidium bromide (KEtBr = 1 × 10^7 M^−1) using the following equation (Eq. 4).4 Kapp=KEtBr[EtBr]/[compound]50% where [compound]50% and [EtBr] are the concentrations of the compound at 50% quenching of DNA-bound ethidium bromide emission intensity and ethidium bromide (3 µM), respectively.

[21] = test system: CT-DNA; test: Thermal denaturation of CT-DNA; type: binding, calf; details: CT-DNA 8.5 µM : compound 10 µM, pH 7.4
Procedure: DNA melting studies were completed by measuring the absorption spectra at 260 nm of CT-DNA (8.5 µM) and CT-DNA-derivative 31 complex (8.5 µM:10 µM) in phosphate buffer (pH 7.4) at varying temperature from 20 to 100 °C using spectrophotometer connected with Peltier.

[22] = target: bovine serum albumin (BSA) (Bos taurus, UniProt P02769); test: Förster resonance energy transfer (FRET) with BSA; type: binding; details: BSA donor, compound acceptor
From the text: The energy transfer efficiency from BSA and compound 31 can be calculated using Eq. 5 [27]:5 E=1−F/Fo=Ro6/Ro6+r^6
F and Fo are the BSA fluorescence intensities in the presence and absence of the derivative 31, r is the distance among the acceptor and the donor, whereas Ro is the critical distance when the efficiency of energy transfer is 50%. Ro can be calculated using Eq. 6 [28]:6 Ro6=8.8×10^−25k^2η^−4ΦJ where k^2 is the orientation factor of the dipole, ɳ is the refracted index of the medium, Ф the fluorescence quantum yield of the donor, and J is the overlap integral of the fluorescence emission spectrum of the donor with the absorption spectrum of the acceptor. The value of J can be calculated using Eq. 7 [29]:7 J=ΣF(λ)ε(λ)λ^4Δλ/ΣF(λ)Δλ where F(λ) is fluorescence intensity of the donor i.e. BSA without acceptor and ε(λ) is molar absorption coefficient of the acceptor i.e. compound 31 at the wavelength λ, respectively. The values of k^2 = 2/3, ɳ = 1.336 and Ф = 0.15 were used for the calculations.

[23] = Homo sapiens, five dose 0.01–100 µM, read-out: LC50 (the source's name)
[24] = Homo sapiens, read-out: Percent growth inhibition
[25] = Homo sapiens, five dose 0.01–100 µM

Sequence of bovine serum albumin (BSA) (P02769 25-607): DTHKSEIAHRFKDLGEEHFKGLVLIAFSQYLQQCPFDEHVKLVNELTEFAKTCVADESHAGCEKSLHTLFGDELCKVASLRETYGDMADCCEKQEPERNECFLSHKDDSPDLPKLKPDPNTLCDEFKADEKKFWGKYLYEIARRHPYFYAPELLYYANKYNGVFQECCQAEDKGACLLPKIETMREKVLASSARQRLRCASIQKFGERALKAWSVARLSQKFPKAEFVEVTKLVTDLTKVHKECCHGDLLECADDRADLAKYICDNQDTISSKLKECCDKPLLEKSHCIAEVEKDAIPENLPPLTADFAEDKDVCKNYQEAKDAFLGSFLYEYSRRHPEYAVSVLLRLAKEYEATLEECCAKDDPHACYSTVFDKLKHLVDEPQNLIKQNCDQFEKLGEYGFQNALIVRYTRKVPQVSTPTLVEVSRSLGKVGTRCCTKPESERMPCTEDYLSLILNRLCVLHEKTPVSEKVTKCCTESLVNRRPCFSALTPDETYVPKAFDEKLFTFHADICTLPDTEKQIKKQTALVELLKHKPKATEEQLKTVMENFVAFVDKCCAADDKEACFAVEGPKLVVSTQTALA

Structure (SMILES): c1cn2cc(-c3ccc4ncn(C5CCCCC5)c4c3)nc(-c3ccc4c(c3)ncn4C3CCCCC3)c2n1 [Compound 31, 8-(1-cyclohexyl-1H-benzo[d]imidazol-5-yl)-6-(1-cyclohexyl-1H-benzo[d]imidazol-6-yl)imidazo[1,2-a]pyrazine]
- GI50 ([1]; Homo sapiens): 1690 nM
- CC50 [1, 23]: > 1000 nM
- inhibition at 10 µM [1, 24]: 95.7%
- TGI ([1]; five dose 0.01–100 µM): 6080 nM
- TGI ([2]; HL-60(TB), five dose 0.01–100 µM): 4570 nM
- GI50 ([2]; Homo sapiens, HL-60): 1840 nM
- CC50 ([2]; Homo sapiens, HL-60(TB), five dose 0.01–100 µM, read-out: LC50 (the source's name)): > 1000 nM
- GI50 ([3]; Homo sapiens, K562): 2570 nM
- CC50 ([3]; Homo sapiens, K562, K-562, five dose 0.01–100 µM, read-out: LC50 (the source's name)): > 1000 nM
- TGI ([3]; K-562, five dose 0.01–100 µM): >1000 nM
- GI50 ([4]; Homo sapiens): 1640 nM
- CC50 [4, 23]: > 1000 nM
- TGI ([4]; five dose 0.01–100 µM): 5220 nM
- GI50 ([5]; Homo sapiens, five dose): 806 nM
- GI50 [5, 25]: 800 nM
- CC50 ([5]; Homo sapiens, RPMI-8226, five dose 0.01–100 µM, read-out: LC50 (the source's name)): > 1000 nM
- TGI ([5]; RPMI-8226, five dose 0.01–100 µM): 3990 nM
- GI50 ([6]; Homo sapiens): 2870 nM
- CC50 [6, 23]: > 1000 nM
- inhibition at 10 µM [6, 24]: 97.5%
- TGI ([6]; five dose 0.01–100 µM): >1000 nM
- CC50 [7]: > 1000 nM
- GI50 ([8]; Homo sapiens): 1590 nM
- CC50 [8, 23]: 6230 nM
- TGI ([8]; five dose 0.01–100 µM): 3150 nM
- GI50 ([9]; Homo sapiens): 1710 nM
- CC50 [9, 23]: 5800 nM
- TGI ([9]; five dose 0.01–100 µM): 3150 nM
- GI50 ([10]; Homo sapiens): 1630 nM
- LC50 (concentration killing 50% of cells) [10, 25]: 6100 nM
- TGI ([10]; five dose 0.01–100 µM): 3150 nM
- GI50 ([11]; Homo sapiens, SNB-19): 2110 nM
- inhibition at 10 µM ([11]; Homo sapiens, SNB-19, read-out: Percent growth inhibition): 93.4%
- TGI ([11]; SNB-19, five dose 0.01–100 µM): 4950 nM
- GI50 ([12]; Homo sapiens): 1390 nM
- LC50 [12, 25]: 6770 nM
- TGI ([12]; five dose 0.01–100 µM): 3070 nM
- GI50 ([13]; Homo sapiens, U-251): 1910 nM
- CC50 ([13]; Homo sapiens, U-251, U251, five dose 0.01–100 µM, read-out: LC50 (the source's name)): 6980 nM
- TGI ([13]; U251, five dose 0.01–100 µM): 3650 nM
- GI50 ([14]; Homo sapiens, OVCAR-4): 2170 nM
- inhibition at 10 µM ([14]; Homo sapiens, OVCAR-4, read-out: Percent growth inhibition): 97.2%
- CC50 ([14]; Homo sapiens, OVCAR-4, five dose 0.01–100 µM, read-out: LC50 (the source's name)): > 1000 nM
- TGI ([14]; OVCAR-4, five dose 0.01–100 µM): 6300 nM
- GI50 [15]: 2430 nM
- CC50 ([15]; five dose 0.01–100 µM, read-out: LC50 (the source's name)): > 1000 nM
- GI50 ([16]; Homo sapiens, OVCAR-3): 1830 nM
- CC50 ([16]; Homo sapiens, OVCAR-3, read-out: LC50): 6200 nM
- TGI ([16]; OVCAR-3, five dose 0.01–100 µM): 3360 nM
- GI50 ([17]; Homo sapiens): 1770 nM
- TGI ([17]; five dose 0.01–100 µM): 3280 nM
- GI50 ([18]; Homo sapiens): 1700 nM
- TGI [18]: 3930 nM
- % survival of HEK293 cells ([19]; 10^−4 M): above 79%
- % survival of HEK293 cells ([19]; 10^−5 M): > 83%
- % survival of HEK293 cells ([19]; 10^−6 M): > 84%
- % survival of HEK293 cells ([19]; 10^−7 M): > 89%
- % survival of HEK293 cells ([19]; 10^−8 M): > 90%
- apparent binding constant Kapp ([20]; EtBr displacement, Eq. 4): 750000 M⁻¹
- quenching constant (Stern-Volmer) ([20]; EtBr-CT-DNA 3 µM:30 µM, compound 0-80 µM): 11600 M⁻¹
- ∆Tm [21]: 12 °C
- critical distance (Ro) [22]: 2.29 nm
- distance between BSA and the compound (r) [22]: 2.08 nm
- energy transfer efficiency (E) [22]: 64%
- overlap integral value (J) [22]: 5.35 × 10^−15 cm^3 L mol^−1
